The values below come from paper PMC4718940, “Preclinical studies of 5-fluoro-2′-deoxycytidine and tetrahydrouridine in pediatric brain tumors” (Journal of Neuro-Oncology, 2015).

One may read the EC50 as the concentration at which the effect is half-maximal. Broadly, the fraction unbound is the share of the substance not bound to proteins or other matrix.

Where two headings read alike, the source gives them in different places.

Data set [1] deals with Trp53−/−, Cdkn2c−/− neurospheres. Description: In vitro cell cycle and apoptosis, control neurospheres. The format is cell-based, mouse. Conditions: 4 nM FdCyd. The source says: See Supplementary Material for more details.
Tumors were fixed in 10% formalin.

In another data set the test system is mouse EP neurospheres. Description: 72 h dose response, CellTiter-Glo, mouse EP neurospheres. The format is cell-based. Conditions: Mus musculus, Fig. 2a, read-out: EC50. The procedure: (§1) In the Discovery Phase, the initial studies included the screen of a library of 9 compounds against epigenetic regulators at a single concentration and a dose-response on G3 MB, EP, and CPC tumor cells, as well as HEPG2 and BJ (Fig. 1). The library and dose response studies are described in the Supplementary Material.
(§2) Briefly, cells (see Supplementary Table S2 for cell identity) were plated in 384-well plates (Corning) in 30 µL of supplemented neurobasal medium by using an automated plate filler (Wellmate, Matrix). After 24 hr, 28 nL of compound was transferred via pin tool, resulting in a final drug concentration of approximately 4 nM to 10 µM. After 72 hr of treatment, CellTiter-Glo reagent (Promega) was added, and the luminescence signal was measured using an automated Envision plate reader (Perkin-Elmer). Luminescence data were normalized by log10-transformation prior to calculating the percentage of inhibition using the following equation: 100 × (negative control mean − compound value)/(negative control mean − positive control mean). Our negative control represents cells treated with 0.1% DMSO with 0% inhibition. Cells treated with 35 µM cycloheximide (G3 MB tumor spheres) or 10 µM panobinostat (EP and CPC cells) were used as positive controls with 100% inhibition. The response of cells to the compounds were normalized to that of the positive controls present in each plate screened, shown in the Y axis of the dose-response curve. […] Unless otherwise reported, the y-axis for each dose response curve in the figures was independently normalized to the range from 0 to 1 and therefore reported as ‘relative growth inhibition’. High through put assay data were analyzed by using our in-house Robust Interpretation of Screening Experiments (RISE) application that was written in Pipeline Pilot (Accelrys, v. 8.5) and R (R Development Core Team).
Background: ATP-based viability assays read luminescence as a measure of living cells.

A short description of data set [2]: In vitro plasma protein binding. It counts as in vitro ADME. Particulars: data not shown, read-out: fu,p (unbound fraction, plasma protein).
Data set [3] is described as follows: Cerebral microdialysis, tECF disposition in tumor-bearing CD1 nude mice. It counts as in vivo. Conditions: mouse, tumor extracellular fluid (dialysate) vs plasma, FdCyd 6 mg/kg with THU 100 mg/kg, read-out: tECF-to-plasma partition coefficient of unbound FdCyd (Kpt,uu), mean ± SD. On the procedure:
(§3) Once a drug passed the Discovery Phase it was moved to the Pre-Clinical Phase, which included PK and PD studies (Fig. 1). The details of the plasma PK and cerebral microdialysis studies are provided in the Supplemental Materials.
Cerebral microdialysis studies were performed in CD1 nude mice orthotopically transplanted with G3 MB, EP, or CPC tumors [,2,6]. Plasma and dialysate samples collected during microdialysis studies were analyzed by using LC-MS/MS to determine drug concentrations. Data obtained from microdialysis performed in individual tumor models were analyzed separately by using a compartmental approach. A model with a tECF compartment that was linked to the plasma compartment by using efflux (CL32) and influx (CL23) clearances was fit to the plasma and tumor ECF concentration-time data. These were obtained from previous plasma PK studies in all tumor models and from each microdialysis by using separate, tumor-specific population NONMEM 7.2.
The tECF-to-plasma partition coefficient of unbound drug (Kpt,uu) was calculated as a ratio of CL23 to CL32. The mean ± SD of individual tECF-to-plasma partition coefficients of unbound FdCyd (Kpt,uu) in CD1 nude mice bearing G3 MB, EP, and CPC were 0.06 ± 0.02, 0.18 ± 0.14, and 0.09 ± 0.04, respectively. […] Inter-animal variability in Kpt,uu, however, was higher in EP tumors than in G3 MB and CPC tumors.The area under plasma concentration-time curve (AUCplasma) was calculated as the ratio of dosage to CL, whereas AUCtECF was calculated as the product of AUCplasma and Kpt,uu.

The next data set relates to CPC tumors. Description: In vivo apoptosis, Caspase 3 immunohistochemistry, CPC.
Data set [4] relates to mouse CPC neurospheres (CPC300). Description: 72 h dose response, CellTiter-Glo, mouse CPC neurospheres. The format is cell-based. Particulars: Mus musculus, Fig. 2a, read-out: EC50. On the procedure:
as §1, §2

Data set [5] can be described thus: Plasma pharmacokinetics in non-tumor-bearing CD1 nude mice. It counts as in vivo, mouse. Particulars: for AUC(0-inf): read-out: plasma exposure (AUC0-Inf), mean ± SD. On the procedure: as §3
An initial, detailed plasma PK study was performed in non–tumor-bearing CD1 nude mice to define drug disposition in our mouse model of interest, determine the plasma systemic exposure, and when possible, to compare the systemic exposure in the mouse with that achievable in patients at clinically relevant dosages. Dosing solutions were prepared in 5% dextrose for injection at concentrations providing a standard final dosing volume of 10 mL/kg (i.e., 2.5 mg/mL FdCyd and 10 mg/mL THU). Plasma samples were separated by centrifugation and stored at −80°C until analysis using a sensitive and specific liquid chromatography–tandem mass spectrometry (LC-MS/MS) method to determine FdCyd concentrations. Plasma samples were collected by using a sparse sampling design in which 2 - 3 blood samples per mouse were collected in tubes containing zebularine (final concentration in blood sample, 1 mg/mL) to inhibit cytidine deaminase activity in vitro.
An appropriate pharmacokinetic model was fit to the observed concentration-time data obtained from the initial PK studies (IP and IV administration) by using non-linear mixed-effect modeling (NONMEM 7.2, ICON Development Solutions). Using D-optimality implemented in ADAPT 5, we use the data from the plasma pharmacokinetic study to define a pharmacokinetic limited sampling model (LSM), which will be used in subsequent microdialysis studies.

Protocol for CPC tumors: To assess apoptosis and proliferation in vivo, G3 MB, EP, and CPC tumors were isolated from mice 3, 8, or 24 h after treatment with compound or vehicle, fixed in 10 % formalin, and sections were immunostained with antibodies to Caspase 3 (apoptosis) or Ki67 (proliferation).
In vivo apoptosis and proliferation were performed on G3 MB, EP, and CPC tumors isolated from mice 3, 8, or 24 hr after treatment with compound or vehicle (saline). Tumors were fixed in 10% formalin. Sections (4-micron) were immunostained with antibodies to Caspase 3 (CP229C, BioCare Medical, Concorde, CA) to detect apoptotic cells, or Ki67 (ThermoShandon, RM9106) to detect proliferation. The number of positive cells for each stain was normalized to the total number of cells.
Mice bearing G3 MB, EP, or CPC tumors were harvested 3, 8, or 24 hr after IP injection of vehicle (V) or FdCyd + THU (FdCyd). Fixed brains were sliced and stained for caspase 3. The percentage of positive cells was calculated based on total number of cells. SD= standard deviation.

Consider `Nc1nc(=O)n([C@H]2C[C@H](O)[C@@H](CO)O2)cc1F` [FdCyd, 5-fluoro-2′-deoxycytidine], for which the “effect on cell cycle and apoptosis of control neurospheres” value in data set [1] was “without affecting control neurospheres”. For the same compound, the figures for the EC50 (in the data set on mouse EP neurospheres; in data set [4]) were 4 nM and 5.6 nM, respectively. Moreover, the fraction unbound in data set [2] is around 1. In addition, the Kp in data set [3] (mice bearing CPC) is 0.09 ± 0.04; in data set [3] (mice bearing EP) it was 0.18 ± 0.14; in data set [3] (mice bearing G3 MB), 0.06 ± 0.02. Further, the “Caspase-3 % of positive cells” value with CPC tumors (3 hr after IP injection of FdCyd + THU, vehicle 3.963) was 10.63%; with CPC tumors (8 hr after IP injection of FdCyd + THU, vehicle 4.917), 2.297%; in the data set with CPC tumors (24 hr after IP injection of FdCyd + THU, vehicle 3.493) it was 6.797%. In addition, the “FdCyd exposure in mice relative to humans” value in data set [5] (CD1 nude mice 25 mg/kg vs humans at RP2D 100 mg/m^2, human PK ref 26) is “approximately 4 times higher”. Also, the AUC(0-inf) in data set [5] (CD1 nude, mouse, plasma, FdCyd 25 mg/kg with THU 100 mg/kg, IP) turned out to be 112 ± 6.55 µM·h; in data set [5] (CD1 nude, mouse, plasma, FdCyd 25 mg/kg with THU 100 mg/kg, IV), 114 ± 4.77 µM·h. Further, the clearance in data set [5] (CD1 nude, mouse, plasma, FdCyd 25 mg/kg with THU 100 mg/kg, NONMEM, IV and IP data, read-out: systemic clearance, population mean (standard error of estimation) (converted)) is 15 mL/min/kg. Further, in data set [5] (CD1 nude, mouse, plasma, FdCyd 25 mg/kg with THU 100 mg/kg, NONMEM, IV and IP data, read-out: volume of distribution, population mean (standard error of estimation)), the Vd was 0.62 L/kg. Further, the “murine plasma exposure compared with RP2D in humans” value in data set [5] (IP 6 mg/kg FdCyd with 100 mg/kg THU, confirmatory PK study) is listed as “comparable”.
